According to ChEMBL document CHEMBL1139264 (Bioorg Med Chem Lett, 2009):
pIC50: −log10 of the molar value.

The molecules below were run against Estrogen receptor beta (Homo sapiens) (UniProt Q92731) (assay: Binding affinity to human ERbeta receptor relative to estrogen).
Estrogen receptor beta (Homo sapiens), sequence (Q92731 whole entry): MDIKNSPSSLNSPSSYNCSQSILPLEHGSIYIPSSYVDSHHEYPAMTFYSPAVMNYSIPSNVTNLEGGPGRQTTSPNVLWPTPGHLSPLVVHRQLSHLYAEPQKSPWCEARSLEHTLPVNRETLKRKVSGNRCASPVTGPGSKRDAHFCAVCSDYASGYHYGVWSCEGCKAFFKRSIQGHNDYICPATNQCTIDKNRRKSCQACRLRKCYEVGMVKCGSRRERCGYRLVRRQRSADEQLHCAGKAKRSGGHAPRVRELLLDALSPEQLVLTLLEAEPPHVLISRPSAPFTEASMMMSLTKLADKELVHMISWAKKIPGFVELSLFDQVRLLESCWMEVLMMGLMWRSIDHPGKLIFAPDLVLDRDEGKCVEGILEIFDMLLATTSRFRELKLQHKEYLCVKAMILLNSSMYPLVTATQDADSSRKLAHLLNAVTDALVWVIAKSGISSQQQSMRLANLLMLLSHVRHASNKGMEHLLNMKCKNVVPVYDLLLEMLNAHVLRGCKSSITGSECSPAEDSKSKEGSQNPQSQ

| SMILES | Activity |
| --- | --- |
| Cc1c(-c2ccc(O)cc2)nn(-c2ccc(O)cc2)c1-c1ccc(/C=C/C(=O)N2CCCCC2)cc1 | 0.015% |
| Cc1c(-c2ccc(O)cc2)nn(-c2ccc(O)cc2)c1-c1ccc(O)cc1 | 0.039% |
| Cc1c(-c2ccc(O)cc2)nn(-c2ccc(O)cc2)c1-c1ccc(OCCN2CCCCC2)cc1 | 0.05% |
| Cc1c(-c2ccc(O)cc2)nn(-c2ccc(O)cc2)c1-c1ccc(CCCN2CCCCC2)cc1 | 0.016% |

Each molecule was assayed against T1, Estrogen receptor (Homo sapiens, UniProt P03372).
T1 sequence (P03372 whole entry): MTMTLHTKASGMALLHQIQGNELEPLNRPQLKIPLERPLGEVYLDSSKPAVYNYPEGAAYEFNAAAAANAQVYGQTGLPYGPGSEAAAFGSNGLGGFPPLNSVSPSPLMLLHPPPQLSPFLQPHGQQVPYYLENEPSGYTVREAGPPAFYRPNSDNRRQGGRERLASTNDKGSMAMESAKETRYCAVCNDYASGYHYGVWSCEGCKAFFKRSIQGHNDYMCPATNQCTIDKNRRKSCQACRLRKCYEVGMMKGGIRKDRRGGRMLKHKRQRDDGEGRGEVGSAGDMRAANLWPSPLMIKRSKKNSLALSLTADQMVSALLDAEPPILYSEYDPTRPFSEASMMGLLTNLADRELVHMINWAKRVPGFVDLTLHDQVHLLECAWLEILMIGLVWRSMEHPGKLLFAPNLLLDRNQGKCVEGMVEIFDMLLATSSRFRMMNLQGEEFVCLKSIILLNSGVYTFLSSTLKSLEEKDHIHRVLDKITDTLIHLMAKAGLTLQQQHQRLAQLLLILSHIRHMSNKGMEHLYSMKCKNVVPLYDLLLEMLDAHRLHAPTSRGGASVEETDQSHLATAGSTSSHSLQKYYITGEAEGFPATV
Description: Antagonist activity at human ERalpha receptor expressed in HEC1 cells assessed as transcriptional activation after 24 hrs by luciferase reporter gene assay

| SMILES | pIC50 |
| --- | --- |
| Cc1c(-c2ccc(O)cc2)nn(-c2ccc(O)cc2)c1-c1ccc(/C=C/C(=O)N2CCCCC2)cc1 | 6.00 |
| Cc1c(-c2ccc(O)cc2)nn(-c2ccc(O)cc2)c1-c1ccc(CCCN2CCCCC2)cc1 | 7.70 |
